Molecules are shown by their SMILES.

This note sets out measurements from patent US4638088A, “Pesticidal biphenylyloxy and biphenylylalkoxy aryl acyl urea compounds” (Union Carbide Corporation, priority 1984, dated 1987).

For series [1], the system named is southern armyworm. In words: Southern Armyworm Leaf Spray Bait Test. In kind it is in vivo. To be noted: Spodoptera eridania, 120 h; for mortality at 500 ppm: read-out: Activity at 500 ppm, SAW, 500 ppm, Southern Armyworm larvae, up to five days; for mortality at 2 ppm: read-out: Percent Control (after 5 days), Application Rate 2 ppm; for mortality at 4 ppm: read-out: Percent Control (after 5 days), Application Rate 4 ppm; for mortality at 8 ppm: read-out: Percent Control (after 5 days), Application Rate 8 ppm; for mortality at 125 ppm: read-out: Percent Control (after 5 days), Application Rate 125 ppm; for mortality at 25 ppm: read-out: Percent Control (after 5 days), Application Rate 25 ppm; for mortality at 100 ppm: read-out: Percent Control (after 5 days), Application Rate 100 ppm. As for the experimental part: (§1) Suspension of the test compounds were prepared by dissolving one gram of compound in 50 milliliters of acetone in which had been dissolved 0.1 gram (10 percent of the weight of compound) of an alkylphenoxy polyethoxyethanol surfactant, as an emulsifying or dispersing agent. The resulting solution was mixed into 150 milliliters of water to give roughly 200 milliliters of a suspension containing the compound in finely divided form. The thus-prepared stock suspension contained 0.5 percent by weight of compound. The test concentrations in parts per million by weight employed in the tests described hereinbelow were obtained by appropriate dilutions of the stock suspension with water. Certain of the test compounds were also prepared by dissolving 375 mg of compound in 7.5 ml of dimethylformamide. Fifteen milliliters of acetone containing 37.5 mg (10 percent of the weight of test compound) of an alkylphenoxy polyethoxyethanol surfactant, as a wetting/emulsifying/dispersing agent was added to the dimethylformamide solution. Fifty-two and one-half milliliters of water wasa mixed into the dimethylformamide-acetone mixture to give roughly 75 ml of a suspension containing the compound in solution or in finely divided form. The thus prepared stock suspension contained 0.5 percent by weight of compound. The test procedures were as follows:
Larvae of the southern armyworm (Spodoptera eridania, (Cram.), reared on Tendergreen bean plants at a temperature of 80°±5° F. and a relative humidity of 50±5 percent, constituted the test insects.
Potted Tendergreen bean plants of standarad height and age were placed on a revolving turntable and sprayed with 100-110 milliliters of test compound formulation by use of a DeVilbiss spray gun set at 40 psig air pressure. This application, which lasted 25 seconds, was sufficient to wet plants to run-off. As a control, 100-110 milliliters of a water-acetone-emulsifier solution containing no test compound was also sprayed on infested plants. When dry, the paired leaves were separated and each one was placed in a 9 centimeter Petri dish lined with moistened filter paper. Five randomly selected larvae were introduced into each dish and the dishes were closed. The closed dishes were labeled and held at 80°-85° F. for up to five days. Although the larvae could easily consume the whole leaf within twenty-four hours, no more food was added. Larvae which were unable to move the length of the body, even upon stimulation by prodding, were considered dead. Percent mortality was recorded for various concentration levels.

In series [2] the test system is Mexican bean beetle. In words: Mexican Bean Beetle Leaf Spray Test. In kind it is in vivo, Epilachna varivestic. Particulars: Mexican Bean Beetle larvae, five days; for mortality at 500 ppm: Epilachna varivestis, 120 h, read-out: Activity at 500 ppm, MBB; for Activity at 500 ppm, MBB: 7200 min. As for the experimental part:
as §1
Fourth instar larvae of the Mexican bean beetle (Epilachna varivestic, Muls.), reared on Tendergreen bean plants at a temperature of 80°±5° F. and 50±5 percent relative humidity, were the test insects. For certain of the tests second instar larvae (weighting about 6 mg) of the Mexican bean beetle (Epilachna varaivestis, Muls.), reared on Sieva Pole lime bean plants at a temperature of 80°±5° F. and 50±5 percent relative humidity, were the test insects.
The test compounds were formulated by diluting the stock suspension with water to give a suspension containing 500 parts of test compound per million parts of final formulation. Potted Tendergreen bean plants of standard height and age were placed on a revolving turntable and sprayed with 100-110 milliliters of test compound formulation by use of a DeVilbiss spray gun set at 40 psig air pressure. This application, which lasted 25 seconds, was sufficient to wet plants to run-off. As a control, 100-110 milliliters of a water-acetone-emulsifier solution containing no test compound was also sprayed on infested plants. When dry, the paired leaves were separated and each was placed in a 9 centimeter Petri dish lined with moistened filter paper. Five randomly selected larvae were introduced into each dish, and the dishes were closed. The closed dishes were labeled and held at a temperature of 80°±5° F., for five days. Although the larvae could easily consume the leaf within 24 to 48 hours, no more food was added. Larvae which were unable to move the length of the body, even upon stimulation, were considered dead. Percent mortality was recorded for various concentration levels.

On to `Cc1cc(Oc2ccccc2-c2ccccc2)c(Cl)cc1NC(=O)NC(=O)c1ccccc1C(F)(F)F` [Example 27], for which the mortality at 500 ppm in series [1] and in series [2] was 0 to 30% each time.
Consider `O=C(NC(=S)Nc1cc(Cl)c(OCc2ccccc2-c2ccccc2)c(Cl)c1)c1ccccc1Cl` [Example 29], for which the mortality at 500 ppm in series [1] and in series [2] was 71 to 100% throughout.
For the compound `Cc1cc(NC(=O)NC(=O)c2c(F)cccc2F)c(C)c(Cl)c1Oc1ccc(-c2ccccc2)cc1Cl` [Example 14], the mortality at 500 ppm in series [1] and in series [2] was 71 to 100% throughout.
Turning to `Cc1cc(NC(=O)NC(=O)c2c(F)cccc2F)c(C)c(Cl)c1Oc1ccc(-c2ccccc2)cc1` [Example 11], the mortality at 500 ppm in series [1] and in series [2] was 71 to 100% in each case.
With `Cc1cc(NC(=O)NC(=O)c2ccccc2Cl)c(C)c(Cl)c1Oc1ccc(S(=O)(=O)c2ccc(Cl)cc2)cc1` [Comparative Example H, reference compound], in series [1], the mortality at 2 ppm was 0%, the mortality at 4 ppm was 0% and the mortality at 8 ppm was 10%.
For the compound `Cc1ccc(Oc2ccc(NC(=O)NC(=O)c3ccccc3Cl)cc2Cl)c(C)c1` [Comparative Example B, reference compound], in series [1], the mortality at 8 ppm worked out at 20% and the mortality at 125 ppm came to 100%. For the same compound, the mortality at 21 ppm in series [1] (read-out: Percent Control (after 5 days), Application Rate 21 ppm) stood at 30%.
Regarding `Cc1cc(NC(=O)NC(=O)c2ccccc2Cl)c(C)c(Cl)c1Oc1ccc(Cl)cc1-c1ccccc1` [Example 17], the mortality at 500 ppm in series [1] and in series [2] was 71 to 100% each time.
Take `O=C(NC(=O)c1cc(F)ccc1Cl)Nc1cc(Cl)c(Oc2cccc(-c3ccccc3)c2)c(Cl)c1` [Comparative Example G, reference compound]: the mortality at 6.25 ppm in series [1] (read-out: Percent Control (after 5 days), Application Rate 6.25 ppm) is 0%. For the same compound, in series [1], the mortality at 25 ppm worked out at 0% and the mortality at 100 ppm is 0%.
On to `O=C(NC(=O)c1ccccc1Cl)Nc1ccc(Oc2ccc(Oc3ccccc3)cc2)cc1` [E, reference compound], for which, in series [1], the mortality at 25 ppm stood at 0% and the mortality at 100 ppm came to 0%.
On to `Cc1cc(NC(=S)NC(=O)c2ccccc2Cl)c(C)c(Cl)c1Oc1ccc(Br)cc1-c1ccccc1` [Example 13], for which the mortality at 500 ppm in series [1] and in series [2] was 0 to 30% in each case.
`O=C(NC(=O)c1c(F)cccc1F)Nc1cc(Cl)c(OCc2ccccc2-c2ccccc2)c(Cl)c1` [Example 28]: the mortality at 500 ppm in series [1] and in series [2] was 71 to 100% each time.
On to `Cc1cc(NC(=O)NC(=O)c2c(F)cccc2Cl)c(C)c(Cl)c1Oc1ccc(Cl)cc1-c1ccccc1` [Example 19], for which the mortality at 500 ppm in series [1] and in series [2] was 71 to 100% in each case.
Turning to `Cc1cc(Oc2ccccc2-c2ccccc2)c(Cl)cc1NC(=O)NC(=O)c1c(F)cccc1F` [Example 22], the mortality at 500 ppm in series [1] and in series [2] was 71 to 100% each time.
For the compound `Cc1cc(NC(=S)NC(=O)c2ccccc2Cl)c(C)c(Cl)c1Oc1ccccc1-c1ccccc1` [Example 7], the mortality at 500 ppm in series [1] and in series [2] was 71 to 100% in each case.
With `Cc1cc(NC(=O)NC(=O)c2c(Cl)cccc2Cl)c(C)c(Cl)c1Oc1ccccc1-c1ccccc1` [Example 4], the mortality at 500 ppm in series [1] and in series [2] was 71 to 100% throughout.
For `Cc1cc(NC(=S)NC(=O)c2ccccc2F)c(C)c(Cl)c1Oc1ccccc1-c1ccccc1` [Example 34], in series [1], the mortality at 2 ppm worked out at 100% and the mortality at 8 ppm is 100%.
Consider `Cc1cc(NC(=O)NC(=O)c2c(F)cccc2Cl)c(C)c(Cl)c1Oc1ccc(Br)cc1-c1ccccc1` [Example 26], for which the mortality at 500 ppm in series [1] and in series [2] was 71 to 100% each time.
Take `Cc1cc(NC(=O)NC(=O)c2c(F)cccc2F)c(C)c(Cl)c1Oc1ccc(Br)cc1-c1ccccc1` [Example 25]: the mortality at 500 ppm in series [1] and in series [2] was 71 to 100% each time.
For `Cc1cc(NC(=O)NC(=O)c2c(F)cccc2Cl)c(C)c(Cl)c1Oc1ccccc1-c1ccccc1` [Example 5], the mortality at 500 ppm in series [1] and in series [2] was 71 to 100% throughout.
As to `Cc1cc(NC(=O)NC(=O)c2ccccc2F)c(C)c(Cl)c1Oc1ccc(-c2ccccc2)cc1Cl` [Example 15], the mortality at 500 ppm in series [1] and in series [2] was 71 to 100% throughout.
On to `Cc1cc(NC(=O)NC(=O)c2c(F)cccc2F)c(C)c(Cl)c1Oc1ccccc1-c1ccccc1` [Example 33], for which, in series [1], the mortality at 2 ppm was found to be 100% and the mortality at 8 ppm stood at 100%.
With `O=C(NC(=O)c1ccc(F)cc1Cl)Nc1cc(Cl)c(Oc2ccc(-c3ccccc3)cc2)c(Cl)c1` [Comparative Example F, reference compound], the mortality at 6.5 ppm in series [1] (read-out: Percent Control (after 5 days), Application Rate 6.5 ppm) came to 0%. For the same compound, in series [1], the mortality at 25 ppm stood at 0% and the mortality at 100 ppm turned out to be 0%.
On to `O=C(NC(=O)c1c(F)cccc1F)Nc1cc(Cl)c(Oc2ccccc2-c2ccccc2)c(Cl)c1` [Example 31], for which the mortality at 500 ppm in series [1] and in series [2] was 71 to 100% in each case.
On to `Cc1cc(NC(=S)NC(=O)c2ccccc2F)c(C)c(Cl)c1Oc1ccccc1-c1ccccc1` [Example 8], for which, in series [2], the “Activity at 500 ppm, MBB” value was “A (71- 100% Kill)”.
In the case of `Cc1cc(NC(=O)NC(=O)c2ccccc2Cl)c(C)c(Cl)c1Oc1ccccc1-c1ccccc1` [Example 3], the mortality at 500 ppm in series [1] and in series [2] was 71 to 100% in each case.
Turning to `Cc1cc(Oc2ccccc2-c2ccccc2)c(Cl)cc1NC(=S)NC(=O)c1ccccc1Cl` [Example 23], the mortality at 500 ppm in series [1] and in series [2] was 71 to 100% each time.
Turning to `Cc1cc(NC(=O)NC(=O)c2c(F)cccc2F)c(C)c(Cl)c1Oc1ccccc1-c1ccccc1` [Example 6], the mortality at 500 ppm in series [1] and in series [2] was 71 to 100% each time.
For the compound `O=C(NC(=O)c1ccccc1Cl)Nc1cc(Cl)c(Oc2ccccc2-c2ccccc2)c(Cl)c1` [Example 32], the mortality at 500 ppm in series [1] and in series [2] was 71 to 100% throughout.
As to `Cc1ccccc1C(=O)NC(=S)Nc1cc(C)c(Oc2ccccc2-c2ccccc2)c(Cl)c1C` [Example 9], the mortality at 500 ppm in series [1] and in series [2] was 71 to 100% in each case.
As for `O=C(NC(=O)c1c(F)cccc1F)Nc1ccc(Oc2ccc(Oc3ccccc3)cc2)cc1` [D, reference compound], in series [1], the mortality at 25 ppm is 0% and the mortality at 100 ppm was found to be 0%.
In the case of `O=C(NC(=O)c1c(F)cccc1F)Nc1cc(Cl)c(Oc2cccc3ccccc23)c(Cl)c1` [Comparative Example C, reference compound], in series [1], the mortality at 8 ppm was 0% and the mortality at 125 ppm is 100%. In series [1] (read-out: Percent Control (after 5 days), Application Rate 31 ppm), the mortality at 31 ppm is 40%.
As to `O=C(NC(=O)c1c(F)cccc1F)Nc1cc(Cl)c(OCc2ccccc2-c2ccccc2)c(Cl)c1` [Example 35], the mortality at 1 ppm in series [1] (read-out: Percent Control (after 5 days), Application Rate 1 ppm) was 100%. Also, the mortality at 4 ppm in series [1] came out at 100%.
With `Cc1cc(NC(=S)NC(=O)c2ccccc2F)c(C)c(Cl)c1Oc1ccccc1-c1ccccc1` [Example 30], the “Activity at 500 ppm, MBB” value in series [2] is on record as “C (0- 30% Kill)”.
